Test [1] has as its system H1299 (non-small cell lung carcinoma). Put plainly: In vitro antiproliferation assay, H1299 cells (TABLE 1 6 point assay; TABLE 2). It counts as cell-based. The following applies: Homo sapiens, NCI-H1299, 6 point assay; H1299 cells; read-out: IC50, H1299 cells. Here is the method: (§1) Certain compounds were tested against other cell types for their ability to inhibit proliferation in standard antiproliferation assays.

Another test has as its system A549 (lung carcinoma). The test can be described thus: In vitro antiproliferation assay, A549 cells (TABLE 1 6 point assay; TABLE 2). The class given is cell-based. The following applies: Homo sapiens, A549, 6 point assay; A549 cells; read-out: IC50, A549 cells. Here is the method: as §1

A word on the IC50: it is the concentration needed to halve the response being measured. Regarding `Cc1cc(Nc2ncc(F)c(N[C@H]3CC[C@@H](C(=O)O)C3)n2)ccc1N1CCN(C)CC1` [compound 219, (1S,3R)-N4-(3-Carboxycyclopent-1-yl)-fluoro-N2-[3-methyl-4-(4-methylpiparazin-1-yl)phenyl]-2,4-pyrimidinediamine], the IC50 (in test [1]; in the test on A549 (lung carcinoma)) was more than 10 µM each time.

As for `Cc1cc(Nc2ncc(F)c(N[C@H]3CC[C@H](C(N)=O)C3)n2)ccc1N1CCN(C)CC1` [compound 220, (1S,3S)-N4-(3-Aminocarbonylcyclopent-1-yl)-5-fluoro-N2-[3-methyl-4-(4-methylpiperazin-1-yl)phenyl]-2,4-pyrimidinediamine], the IC50 (in test [1]; in the test on A549 (lung carcinoma)) was 1 to 10 µM in each case.

As to `Cc1cc(Nc2ncc(F)c(N[C@@H]3C=C[C@H](C(N)=O)C3)n2)ccc1N1CCN(C)CC1` [compound 225, (1S,4R)-cis-N4-(4-Aminocarbonylcyclopent-2-ene-1-yl)-5-fluoro-N2-[3-methyl-4-(4-methylpiperazin-1-yl)phenyl]-2,4-pyrimidinediamine], the half-maximal inhibitory concentration (IC50) (in test [1]; in the test on A549 (lung carcinoma)) was 0.1 to 1 µM in each case.

As to `Cc1cc(Nc2ncc(F)c(N[C@H]3C=C[C@@H](C(N)=O)C3)n2)ccc1N1CCN(C)CC1` [compound 226, (1R,4S)-cis-N4-(4-Aminocarbonylcyclopent-2-ene-1-yl)-5-fluoro-N2-[3-methyl-4-(4-methylpiperazin-1-yl)phenyl]-2,4-pyrimidinediamine], the IC50 (in test [1]; with A549 (lung carcinoma)) was 1 to 10 µM each time.

Take `Cc1cc(Nc2ncc(F)c(NC3CC=CC3)n2)ccc1N1CCN(C)CC1` [compound 237, N4-(Cyclopent-3-ene-1-yl)-5-fluoro-N2-[3-methyl-4-(4-methylpiperazin-1-yl)phenyl]-2,4-pyrimidinediamine]: the half-inhibitory concentration (IC50) in test [1] fell in the range of 1 to 10 µM; in the test with A549 (lung carcinoma) it was 0.1 to 1 µM.

For the compound `Cc1cc(Nc2ncc(F)c(NC3(C(N)=O)CC=CC3)n2)ccc1N1CCN(C)CC1` [compound 238, N4-(1-Aminocarbonylcyclopent-3-ene-1-yl)-5-fluoro-N2-[3-methyl-4-(4-methylpiperazin-1-yl)phenyl]-2,4-pyrimidinediamine], the half-inhibitory concentration (IC50) in test [1] was more than 10 µM; in the test with A549 (lung carcinoma), 1 to 10 µM.

Consider `Cc1cc(Nc2ncc(F)c(NC3(C(=O)NC4CC4)CC=CC3)n2)ccc1N1CCN(C)CC1` [compound 244, N4-(1-Cyclopropylaminocarbonylcyclopent-3-en-1-yl)-5-fluoro-N2-[3-methyl-4-(4-methylpiperazin-1-yl)phenyl]-2,4-pyrimidinediamine], for which the half-maximal inhibitory concentration (IC50) (in test [1]; in the test on A549 (lung carcinoma)) was more than 10 µM each time.

Take `Cc1cc(Nc2ncc(F)c(NC3(C(=O)O)CCCC3)n2)ccc1N1CCN(C)CC1` [compound 246, N4-(1-Carboxycyclopent-1-yl)-5-fluoro-N2-[3-methyl-4-(4-methylpiperazin-1-yl)phenyl]-2,4-pyrimidinediamine]: the IC50 (in test [1]; in the test on A549 (lung carcinoma)) was more than 10 µM throughout.

For `Cc1cc(Nc2ncc(F)c(NC3(C(=O)NC4CC4)CCCC3)n2)ccc1N1CCN(C)CC1` [compound 247, N4-(1-Cyclopropylaminocarbonylcyclopent-1-yl)-5-fluoro-N2-[3-methyl-4-(4-methylpiperazin-1-yl)phenyl]-2,4-pyrimidinediamine], the IC50 (in test [1]; in the test on A549 (lung carcinoma)) was more than 10 µM each time.

For `Cc1cc(Nc2ncc(F)c(NC3(C(N)=O)CCCC3)n2)ccc1N1CCN(C)CC1` [compound 248, N4-(1-Aminocarbonylcyclopent-1-yl)-5-fluoro-N2-[3-methyl-4-(4-methylpiperazin-1-yl)phenyl]-2,4-pyrimidinediamine], the IC50 (in test [1]; in the test with A549 (lung carcinoma)) was more than 10 µM in each case.

Regarding `Cc1cc(Nc2ncc(F)c(N[C@@H]3[C@H]4CC[C@H](C4)[C@@H]3C(=O)NC3CC3)n2)ccc1N1CCN(C)CC1` [compound 253, (1S,2R,3S,4R)-N4-(3-N-Cyclopropylaminocarbonylbicyclo[2.2.1]hept-2-yl)-5-fluoro-N2-[3-methyl-4-(4-methylpiperazin-1-yl)phenyl]-2,4-pyrimidinediamine], the IC50 (in test [1]; in the test with A549 (lung carcinoma)) was 0.1 to 1 µM throughout.

For the origin of these results see patent publication US7868013B2, “Cycloalkyl substituted pyrimidinediamine compounds and their uses” (Rigel Pharmaceuticals, Inc., priority 2004, dated 2011).
